Test results as given in US10730885B1, “Coumarin derivatives” (KING SAUD UNIVERSITY, priority 2019, dated 2020).
Values after ≈ are worked out from the molar mass of the structure shown.

Key:
[1] = DPPH microplate radical scavenging antioxidant assay; assay type: biochemical; details: DPPH, 30 min, mean ± SD (n = 3)
Outline: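 Compounds, starting at 200 μg/mL in a dilution series, incubated with 0.2 mM methanolic DPPH for 30 min in the dark at 25° C. Absorbance at 515 nm converted to percent antioxidant activity; IC50 from concentration series, triplicate, mean±SD (n=3).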

tested microorganisms = test: MIC by two fold serial dilution, summary over the tested microorganisms; assay type: cell-based
Description: (§1) The newly synthesized compounds were individually tested for their in vitro antimicrobial activity against the standard bacteria strains of American Type Culture Collection (ATCC), namely, Staphylococcus aureus ATCC 29213, Bacillus subtilis ATCC 6633, Bacillus megaterium ATCC 9885 (Gram-positive), Escherichia coli ATCC 2592 and Pseudomonas aeruginosa ATCC 27953 (Gram-negative). In addition, they were microbiologically tested against the locally isolated Saccharomyces cerevisiae (yeast) and the standard strain of Agricultural Research Service Culture Collection (NRRL) of the yeast like pathogenic fungus Candida albicans NRRL Y-477. The primary screening was carried out using the agar well diffusion method using nutrient agar (NA) medium and Sabourand dextrose agar (SDA) medium for pathological tested bacteria and yeast, respectively.
(§2) The bacteriostatic activity of the active compounds (having IZ>16 mm) was then evaluated using the two fold serial dilution technique. Two-fold serial dilutions of the tested compound solutions were prepared using the proper nutrient broth. The final concentration of the solutions were 1000, 500, 250 and 125 μg/ml. The tubes were then inoculated with the test organisms, grown in their suitable broth at 37° C. for 24 hours for tested microorganisms. (1×10^8 CFU/ml for bacteria and 1×10^6 CFU/ml of yeast), each 5 ml received 0.1 ml of the above inoculum and incubated at 37° C. for 24 h. The lowest concentration showing no growth was taken as the minimum inhibitory concentration (MIC).

trypsin = test: Proteinase inhibitory activity (trypsin/casein); assay type: biochemical; details: for % Inhibition of proteinase activity: 250 μg/ml, mean ± SD (n = 3)
Outline: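 Trypsin (0.06 mg) in 20 mM Tris-HCl pH 7.4 was preincubated 5 min with test sample (250 μg/ml solution), then 0.8% casein was added for 20 min. The reaction was stopped with perchloric acid, and supernatant absorbance was read at 280 nm after centrifugation. Percent inhibition relative to the uninhibited control was determined in triplicate.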

[2] = tested on: formaldehyde-induced paw oedema; test: Formaldehyde-induced rat paw oedema; assay type: in vivo; details: 2.5 mg/kg orally
Description: Testing was performed to determine formaldehyde-induced rat paw oedema (edema). For the formaldehyde-induced rat paw oedema (edema) test, female Wister albino rats (150-175 g) were used for determination of the anti-inflammatory activities. The rats were obtained from the animal house colony of the National Organization for Drug Control and Research (NODCAR), Egypt. The animals were kept in standard plastic cages in an air conditioned room at 22±3° C., 55±5% humidity and supplied with standard laboratory diet and water ad libitum. All animal experimental procedures were carried out according to the Ethics Committee of the National Research Centre, Cairo, Egypt and followed the guidelines of the National Institutes of Health, Guide for Care and Use of Laboratory Animals (1985).
The percentage protection against inflammation was calculated by using following formula:
[formula] where Vc is the mean percentage increase in paw volume in the control and Vd is the mean percentage increase in paw volume after injection of the test compound. Values were expressed as mean±standard error (S.E.). Comparisons between mean values were carried out using two-way analysis of variance (ANOVA), followed by Tukey Kramer multiple comparisons test for all acute toxicity study tests. […] was considered significant. Graph pad prism software (version 6) was used to carry out all statistical tests.

[3] = tested on: Saccharomyces cerevisiae (local isolate); test: MIC by two fold serial dilution technique; assay type: cell-based; details: read-out: Minimal Inhibitory Concentration (MIC) SC
Description: as §1, §2

[4] = tested on: Candida albicans NRRL Y-477; test: MIC by two fold serial dilution technique; assay type: cell-based; details: NRRLY477, C. albicans, read-out: Minimal Inhibitory Concentration (MIC) CA
Description: as §1, §2

[5] = tested on: Bacillus megaterium ATCC 9885; test: MIC by two fold serial dilution technique; assay type: cell-based; details: Priestia megaterium, ATCC9885; B. megaterium; read-out: Minimal Inhibitory Concentration (MIC) BM
Description: as §1, §2

[6] = tested on: Pseudomonas aeruginosa ATCC 27953; test: MIC by two fold serial dilution technique; assay type: cell-based; details: ATCC27953, P. aeruginosa, read-out: Minimal Inhibitory Concentration (MIC) PA
Description: as §1, §2

[7] = tested on: Staphylococcus aureus ATCC 29213; test: MIC by two fold serial dilution technique; assay type: cell-based; details: ATCC29213, S. aureus, read-out: Minimal Inhibitory Concentration (MIC) SA
Description: as §1, §2

[8] = tested on: Escherichia coli ATCC 2592; test: MIC by two fold serial dilution technique; assay type: cell-based; details: ATCC2592, E. coli, read-out: Minimal Inhibitory Concentration (MIC) EC
Description: as §1, §2

[9] = tested on: Bacillus subtilis ATCC 6633; test: MIC by two fold serial dilution technique; assay type: cell-based; details: ATCC6633, B. subtilis, read-out: Minimal Inhibitory Concentration (MIC) BS
Description: as §1, §2

[10] = tested on: Escherichia coli ATCC 2592; test: Agar well diffusion, primary antimicrobial screening; assay type: cell-based; details: Escherichia coli, ATCC2592; E. coli ATCC 2592; 100 μL of 10 mg/ml in DMSO, 24 h; read-out: Inhibition Diameter Zone EC
Outline: (§3)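 Seeded agar (bacteria 1×10^8 CFU/mL on nutrient agar; yeasts 1×10^6 CFU/ml on Sabouraud dextrose agar), 10 mm wells loaded with compound at 10 mg/ml in DMSO. Incubated 24 h at 37° C. Inhibition zone diameter (mm), mean of triplicate; DMSO negative control.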

[11] = tested on: Bacillus megaterium ATCC 9885; test: as above; assay type: cell-based; details: Priestia megaterium, ATCC9885; B. megaterium ATCC 9885; 100 μL of 10 mg/ml in DMSO, 24 h; read-out: Inhibition Diameter Zone BM
Outline: as §3

[12] = tested on: Bacillus subtilis ATCC 6633; test: as above; assay type: cell-based; details: Bacillus subtilis, ATCC6633; B. subtilis ATCC 6633; 100 μL of 10 mg/ml in DMSO, 24 h; read-out: Inhibition Diameter Zone BS
Outline: as §3

[13] = tested on: Pseudomonas aeruginosa ATCC 27953; test: as above; assay type: cell-based; details: Pseudomonas aeruginosa, ATCC27953; P. aeruginosa ATCC 27953; 100 μL of 10 mg/ml in DMSO, 24 h; read-out: Inhibition Diameter Zone PA
Outline: as §3

[14] = tested on: Candida albicans NRRL Y-477; test: as above; assay type: cell-based; details: Candida albicans, NRRLY477; C. albicans NRRL Y-477; 100 μL of 10 mg/ml in DMSO, 24 h; read-out: Inhibition Diameter Zone CA
Outline: as §3

Structure (SMILES) | melting point [°C] | IC50 [1] | MIC (tested microorganisms; against gram-positive bacteria) [µg/mL] | % Inhibition of proteinase activity (trypsin) [%] | in vivo anti-inflammatory activity [2] | in vitro anti-proteinase activity compared with aspirin (trypsin) | MIC (tested microorganisms; against most of the tested microorganisms) [µg/mL] | MIC [3] [µg/mL] | MIC [4] [µg/mL] | MIC [5] [µg/mL] | MIC [6] [µg/mL] | MIC [7] [µg/mL] | MIC [8] [µg/mL] | MIC [9] [µg/mL] | zone of inhibition at 10000 µg/mL [10] [mm] | zone of inhibition at 10000 µg/mL [11] [mm] | zone of inhibition at 10000 µg/mL [12] [mm] | zone of inhibition at 10000 µg/mL [13] [mm] | zone of inhibition at 10000 µg/mL [14] [mm]
Cc1ccc2oc(=O)c3c(c2c1)OC(N)=C(C#N)C3c1ccc([N+](=O)[O-])cc1 (racemic) [Compound 5a, (±)-2-amino-9-methyl-4-(4-nitrophenyl)-5-oxo-4H,5H-pyrano[3,2-c]chromene-3-carbonitrile] | 259 to 261 | — ((—): inactive (IC50 > 200 μg/mL)) | 500 to 1000 (≈ 1330 to 2660 µM) | 17.38 ± 1.63 |  |  |  |  |  |  |  |  |  |  |  |  |  |  | 
Cc1ccc2oc(=O)c3c(c2c1)OC(N)=C(C#N)C3c1ccco1 (racemic) [Compound 5b, (±)-2-amino-4-(furan-2-yl)-9-methyl-5-oxo-4H,5H-pyrano[3,2-c]chromene-3-carbonitrile] | 251 to 253 | — ((—): inactive (IC50 > 200 μg/mL)) | 500 to 1000 (≈ 1560 to 3120 µM) | 74.68±3.01 | significant protection against inflammation | more potent |  |  |  |  |  |  |  |  |  |  |  |  | 
Cc1ccc2oc(=O)c3c(c2c1)OC(N=Cc1ccccc1)=C(C#N)C3c1ccc([N+](=O)[O-])cc1 (racemic) [Compound 8a, (±)-2-(benzylideneamino)-9-methyl-4-(4-nitrophenyl)-5-oxo-4H,5H-pyrano[3,2-c]chromene-3-carbonitrile] | 208 to 209 | — ((—): inactive (IC50 > 200 μg/mL)) |  |  |  |  | 250 to 500 (≈ 539 to 1080 µM) | 500 (≈ 1080 µM) | 500 (≈ 1080 µM) | 500 (≈ 1080 µM) | 500 (≈ 1080 µM) |  |  |  |  |  |  |  | 
COc1cc(C=NC2=C(C#N)C(c3ccc([N+](=O)[O-])cc3)c3c(c4cc(C)ccc4oc3=O)O2)cc(OC)c1OC (racemic) [Compound 8c, (±)-9-methyl-4-(4-nitrophenyl)-5-oxo-2-((3,4,5-trimethoxybenzylidene)amino)-4H,5H-pyrano[3,2-c]chromene-3-carbonitrile] | 221 to 223 | — ((—): inactive (IC50 > 200 μg/mL)) |  | 68.5±6.23 |  | more potent |  | 500 (≈ 903 µM) | 500 (≈ 903 µM) | 500 (≈ 903 µM) | 500 (≈ 903 µM) | 500 (≈ 903 µM) | 500 (≈ 903 µM) | 500 (≈ 903 µM) |  |  |  |  | 
COc1cc(C=NC2=C(C#N)C(c3ccco3)c3c(c4cc(C)ccc4oc3=O)O2)cc(OC)c1OC (racemic) [Compound 8d, (±)-4-(furan-2-yl)-9-methyl-5-oxo-2-((3,4,5-trimethoxybenzylidene)amino)-4H,5H-pyrano[3,2-c]chromene-3-carbonitrile] | 248 to 250 | 82.92 ± 3.30 µg/mL (≈ 166 µM) |  | 43.4 ± 1.52 |  | as potent |  | 1000 (≈ 2010 µM) | 1000 (≈ 2010 µM) |  |  | 1000 (≈ 2010 µM) |  |  | < 15 | < 15 | < 15 | < 15 | 
Cc1ccc2oc(=O)c3c(c2c1)OC(N=Cc1ccc(Cl)cc1Cl)=C(C#N)C3c1ccc([N+](=O)[O-])cc1 (racemic) [Compound 8e, (±)-2-((2,4-dichlorobenzylidene)amino)-9-methyl-4-(4-nitrophenyl)-5-oxo-4H,5H-pyrano[3,2-c]chromene-3-carbonitrile] | 236 to 238 | — ((—): inactive (IC50 > 200 μg/mL)) |  | 45.78 ± 1.62 |  | as potent |  | 500 (≈ 939 µM) | 500 (≈ 939 µM) |  |  |  |  |  |  |  |  |  | 20
Cc1ccc2oc(=O)c3c(c2c1)OC(N=Cc1ccc(Cl)cc1Cl)=C(C#N)C3c1ccco1 (racemic) [Compound 8f, (±)-2-((2,4-dichlorobenzylidene)amino)-4-(furan-2-yl)-9-methyl-5-oxo-4H,5H-pyrano[3,2-c]chromene-3-carbonitrile] | > 300 | — ((—): inactive (IC50 > 200 μg/mL)) | 500 to 1000 (≈ 1050 to 2100 µM) | 26.83 ± 5.33 |  |  |  | 500 (≈ 1050 µM) | 500 (≈ 1050 µM) | 1000 (≈ 2100 µM) | 1000 (≈ 2100 µM) | 500 (≈ 1050 µM) | 1000 (≈ 2100 µM) | 500 (≈ 1050 µM) | 20 | 20 |  |  | 
